The molecules below were run against Ba/F3 V617F cells (Homo sapiens, UniProt O60674, V617F, cells depend on it) (assay: Proliferation assay (Cell Titer-Glo, 72 h) utilizing Ba/F3 V617F cells). Conditions: Ba/F3 V617F cells, proliferation, level of activity to inhibit JAK2, read-out: IC50 (the source's name).
Type: cell-based, mouse
How it was run: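 Ba/F3 V617F cells in RPMI/10% FBS, 1×10^5 cells/mL, exposed in duplicate to 3-fold serial compound dilutions (top 5 mM DMSO stock, diluted 1:250, added as 2× solution in 5% FBS medium) for 72 h at 37 °C. Viability by Cell Titer-Glo luminescence; IC50 reported.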

Sequence of Ba/F3 V617F cells (O60674 whole entry V617F): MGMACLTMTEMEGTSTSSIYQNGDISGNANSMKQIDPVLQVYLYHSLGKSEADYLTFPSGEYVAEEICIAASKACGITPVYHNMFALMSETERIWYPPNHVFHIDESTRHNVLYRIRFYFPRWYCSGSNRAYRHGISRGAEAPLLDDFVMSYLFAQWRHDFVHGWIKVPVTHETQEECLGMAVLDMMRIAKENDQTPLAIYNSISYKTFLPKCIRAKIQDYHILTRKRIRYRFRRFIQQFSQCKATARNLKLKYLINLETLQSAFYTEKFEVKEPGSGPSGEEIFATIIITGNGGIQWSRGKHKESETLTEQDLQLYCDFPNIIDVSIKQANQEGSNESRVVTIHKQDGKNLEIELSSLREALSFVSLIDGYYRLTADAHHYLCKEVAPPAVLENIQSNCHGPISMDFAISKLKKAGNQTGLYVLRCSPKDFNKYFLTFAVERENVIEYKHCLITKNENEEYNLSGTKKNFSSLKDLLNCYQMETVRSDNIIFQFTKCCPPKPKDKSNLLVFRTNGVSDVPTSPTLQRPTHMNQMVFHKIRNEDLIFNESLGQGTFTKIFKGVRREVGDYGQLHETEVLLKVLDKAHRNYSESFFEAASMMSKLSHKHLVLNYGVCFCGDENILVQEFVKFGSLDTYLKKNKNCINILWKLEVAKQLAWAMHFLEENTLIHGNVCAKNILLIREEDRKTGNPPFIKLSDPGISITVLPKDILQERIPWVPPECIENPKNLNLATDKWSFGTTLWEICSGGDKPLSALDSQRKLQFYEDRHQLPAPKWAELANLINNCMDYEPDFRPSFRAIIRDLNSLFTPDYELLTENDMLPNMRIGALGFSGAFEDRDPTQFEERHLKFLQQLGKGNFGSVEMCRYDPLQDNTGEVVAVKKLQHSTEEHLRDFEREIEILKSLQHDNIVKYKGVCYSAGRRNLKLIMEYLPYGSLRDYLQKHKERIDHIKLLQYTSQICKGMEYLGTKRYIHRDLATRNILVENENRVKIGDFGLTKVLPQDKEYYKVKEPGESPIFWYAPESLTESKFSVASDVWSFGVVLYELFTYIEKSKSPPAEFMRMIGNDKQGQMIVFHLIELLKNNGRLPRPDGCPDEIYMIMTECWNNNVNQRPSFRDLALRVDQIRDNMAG

Compared with `Cc1cc(Nc2nccc(-c3cc[nH]c3)n2)ccc1N1C[C@@H]2C[C@H]1CN2C` [compound 169, 4-(1H-pyrrol-3-yl)-N-(3-methyl-4-((1S,4S)-5-methyl-2,5-diazabicyclo[2.2.1]heptan-2-yl)phenyl)pyrimidin-2-amine], `CN1C[C@@H]2C[C@H]1CN2c1ccc(Nc2nccc(-c3cc[nH]c3)n2)cc1C(F)(F)F` [compound 171, 4-(1H-pyrrol-3-yl)-N-(3-trifluoromethyl-4-((1S,4S)-5-methyl-2,5-diazabicyclo[2.2.1]heptan-2-yl)phenyl)pyrimidin-2-amine] is lower in GI50: 1000 to 10000 nM for the first, under 1000 nM for the second.

First: CN1C[C@@H]2C[C@H]1CN2c1ccc(Nc2nccc(-c3cc[nH]c3)n2)cc1 [compound 170, 4-(1H-pyrrol-3-yl)-N-(4-((1S,4S)-5-methyl-2,5-diazabicyclo[2.2.1]heptan-2-yl)phenyl)pyrimidin-2-amine]
Second: CCOc1ccc(-c2ccnc(Nc3ccc(N4C[C@@H]5C[C@H]4CN5C)c(C)c3)n2)cn1 [compound 173, 4-(6-ethoxypyridin-3-yl)-N-(3-methyl-4-((1S,4S)-5-methyl-2,5-diazabicyclo[2.2.1]heptan-2-yl)phenyl)pyrimidin-2-amine]
The GI50 of the first is higher: 1000 to 10000 nM for the first, under 1000 nM for the second.

First: CC1(C)Oc2cc(-c3ccnc(Nc4ccc(N5C[C@@H]6C[C@H]5CN6)c(C(F)(F)F)c4)n3)cnc2NC1=O [compound 172, 4-(2,2-dimethyl-3-oxo-3,4-dihydro-2H-pyrido[3,2-b][1,4]oxazin-7-yl)-N-(3-trifluoromethyl-4-((1S,4S)-2,5-diazabicyclo[2.2.1]heptan-2-yl)phenyl)pyrimidin-2-amine]
Second: CCOc1ccc(-c2ccnc(Nc3ccc(N4C[C@@H]5C[C@H]4CN5C)c(F)c3)n2)cn1 [compound 174, 4-(6-ethoxypyridin-3-yl)-N-(3-fluoro-4-((1S,4S)-5-methyl-2,5-diazabicyclo[2.2.1]heptan-2-yl)phenyl)pyrimidin-2-amine]
The GI50 of the first is lower: under 1000 nM for the first, 1000 to 10000 nM for the second.

`Cc1cc(Nc2nccc(-c3csc(N(C)C)n3)n2)ccc1N1C[C@@H]2C[C@H]1CN2C` [compound 175, 4-(2-(dimethylamino)thiazol-4-yl)-N-(3-methyl-4-((1S,4S)-5-methyl-2,5-diazabicyclo[2.2.1]heptan-2-yl)phenyl)pyrimidin-2-amine] and `CN(C)c1nc(-c2ccnc(Nc3ccc(N4C[C@@H]5C[C@H]4CN5C)c(F)c3)n2)cs1` [compound 176, 4-(2-(dimethylamino)thiazol-4-yl)-N-(3-fluoro-4-((1S,4S)-5-methyl-2,5-diazabicyclo[2.2.1]heptan-2-yl)phenyl)pyrimidin-2-amine] fall in the same range of GI50: 1000 to 10000 nM for the first, 1000 to 10000 nM for the second.

`Cc1cc(Nc2nccc(-c3cnc(N4CCOCC4)cn3)n2)ccc1N1C[C@@H]2C[C@H]1CN2C` [compound 178, 4-(5-(morpholin-4-yl)pyrazin-2-yl)-N-(3-methyl-4-((1S,4S)-5-methyl-2,5-diazabicyclo[2.2.1]heptan-2-yl)phenyl)pyrimidin-2-amine] and `CN1C[C@@H]2C[C@H]1CN2c1ccc(Nc2nccc(-c3cnc(N4CCOCC4)cn3)n2)cc1F` [compound 179, 4-(5-(morpholin-4-yl)pyrazin-2-yl)-N-(3-fluoro-4-((1S,4S)-5-methyl-2,5-diazabicyclo[2.2.1]heptan-2-yl)phenyl)pyrimidin-2-amine] fall in the same range of GI50: 1000 to 10000 nM for the first, 1000 to 10000 nM for the second.

Same assay, conditions: inhibition of JAK2 activity, proliferation of Ba/F3 V617F cells, read-out: IC50 (the source's name)

Compared with `CN(C)c1nc(-c2ccnc(Nc3ccc(N4C[C@@H]5C[C@H]4CN5C)nc3)n2)cs1` [compound 177, 4-(2-(dimethylamino)thiazol-4-yl)-N-(6-((1S,4S)-5-methyl-2,5-diazabicyclo[2.2.1]heptan-2-yl)pyridin-3-yl)pyrimidin-2-amine], `CN1C[C@@H]2C[C@H]1CN2c1ccc(Nc2nccc(-c3cnc(N4CCOCC4)cn3)n2)cn1` [compound 180, 4-(5-(morpholin-4-yl)pyrazin-2-yl)-N-(6-((1S,4S)-5-methyl-2,5-diazabicyclo[2.2.1]heptan-2-yl)pyridin-3-yl)pyrimidin-2-amine] is lower in GI50: over 20000 nM for the first, 1000 to 10000 nM for the second.
